Data as given in patent publication US20070015823A1, “Ambruticin VS compounds” (priority 2004, published 2007).
≈ marks a conversion by molar mass, not a printed value. Read-outs that look alike come from different tables or passages of the source.

Key:
A. flavus ATCC 204304 = assay: Broth microdilution antifungal susceptibility, NCCLS M38-A; format: cell-based, Aspergillus flavus; conditions: minimal concentration inhibiting >95% growth; average of at least two assays (except I-l and I-x)
A. fumigatus ATCC 204305 = assay: as above; format: cell-based, Aspergillus fumigatus; conditions: minimal concentration inhibiting >95% growth; average of at least two assays (except I-l and I-x)
Cryptococcus neoformans = assay: as above; conditions: 50% growth inhibition, range = minimum and maximum of multiple assays; for MIC C. neoformans 97-14: strain 97-14; for MIC C. neoformans 11239: strain 11239; for MIC C. neoformans 11240: strain 11240
Blastomyces dermatitidis = assay: as above; format: cell-based
Histoplasma capsulatum = format: cell-based
C. immitis = assay: microbe, parasite or virus in culture; format: cell-based, Coccidioides immitis
Candida albicans = conditions: Candida albicans
[1] = system: Trichophyton mentagrophytes; assay: Dermatophyte broth microdilution, NCCLS M38-A; format: cell-based
Microsporum gypseum = assay: Dermatophyte broth microdilution, NCCLS M38-A; format: cell-based
[2] = system: Trichophyton interdigitale; assay: Dermatophyte broth microdilution, NCCLS M38-A; format: cell-based
Epidermophyton floccosum = assay: Dermatophyte broth microdilution, NCCLS M38-A; format: cell-based
Trichophyton rubrum = assay: Dermatophyte broth microdilution, NCCLS M38-A; format: cell-based
Microsporum canis = assay: Dermatophyte broth microdilution, NCCLS M38-A; format: cell-based

SMILES	MIC0 A. flavus ATCC 204304 (A. flavus ATCC 204304)	MIC0 A. fumigatus ATCC 204305 (A. fumigatus ATCC 204305)	MIC C. neoformans 97-14 (Cryptococcus neoformans)	MIC C. neoformans 11239 (Cryptococcus neoformans)	MIC C. neoformans 11240 (Cryptococcus neoformans)	other results
CC[C@H]1O[C@@H](/C(C)=C/[C@H](C)/C=C/[C@H]2[C@@H](C)[C@@H]2/C=C/[C@@H]2O[C@H](CC(=O)O)CC(=O)[C@H]2O)CC=C1C [5-keto ambruticin S, (6R)-5-Oxo-6-hydroxypolyangioic acid, reference compound]	1.0 µg/mL	2.0 µg/mL	0.5 µg/mL (≈ 1.06 µM)	2 µg/mL (≈ 4.23 µM)	2 µg/mL (≈ 4.23 µM)	
CC[C@H]1O[C@@H](/C(C)=C/[C@H](C)/C=C/[C@H]2[C@@H](C)[C@@H]2/C=C/[C@@H]2O[C@H](CC(=O)O)C[C@H](NC)[C@H]2O)CC=C1C [Ambruticin VS-4, (5S,6R)-5-(methylamino)-6-hydroxypolyangioic acid, reference compound]	0.47 µg/mL	0.60 µg/mL				MIC2 B. dermatitidis 05-106 (Blastomyces dermatitidis): ≦0.15 μg/mL; MIC2 B. dermatitidis 05-186 (Blastomyces dermatitidis): ≦0.15 μg/mL; MIC2 B. dermatitidis 05-1291 (Blastomyces dermatitidis): ≦0.15 μg/mL; MIC2 H. capsulatum 05-959 (Histoplasma capsulatum): ≦0.15 μg/mL; MIC2 H. capsulatum 05-1097 (Histoplasma capsulatum): ≦0.15 μg/mL; MIC2 H. capsulatum 05-1159 (Histoplasma capsulatum): ≦0.15 μg/mL; MIC2 C. immitis 05-469 (C. immitis): ≦0.15 μg/mL; MIC2 C. immitis 05-955 (C. immitis): ≦0.15 μg/mL; MIC2 C. immitis 05-1387 (C. immitis): ≦0.15 μg/mL
CC[C@H](C)C[C@H](C)CCCCCCCCC(=O)N[C@H]1C[C@@H](O)[C@@H](NCCN)NC(=O)[C@@H]2[C@@H](O)CCN2C(=O)[C@H]([C@H](O)CCN)NC(=O)[C@H]([C@H](O)[C@@H](O)c2ccc(O)cc2)NC(=O)[C@@H]2C[C@@H](O)CN2C(=O)[C@H]([C@@H](C)O)NC1=O [Caspofungin, reference compound]						MIC (Candida albicans; read-out: MIC C. albicans 24433): 2 µg/mL (≈ 1.83 µM); MIC (Candida albicans; read-out: MIC C. albicans 90028): 2 µg/mL (≈ 1.83 µM)
CC[C@H]1O[C@@H](/C(C)=C/[C@H](C)/C=C/[C@H]2[C@@H](C)[C@@H]2/C=C/[C@@H]2O[C@H](CC(=O)O)C[C@H](N(C)CC3CC3)[C@H]2O)CC=C1C [I-b, (5S,6R)-5-(N-cyclopropylmethyl-methylamino)-6-hydroxypolyangioic acid]	1.5 µg/mL	1.5 µg/mL	2 µg/mL (≈ 3.69 µM)	2 µg/mL (≈ 3.69 µM)	2 µg/mL (≈ 3.69 µM)	
CC[C@H]1O[C@@H](/C(C)=C/[C@H](C)/C=C/[C@H]2[C@@H](C)[C@@H]2/C=C/[C@@H]2O[C@H](CC(=O)O)C[C@H](N(C)C3CCCC3)[C@H]2O)CC=C1C [I-c, (5S,6R)-5-(N-cyclopentyl-methylamino)-6-hydroxypolyangioic acid]	2.0 µg/mL	2.67 µg/mL	1 µg/mL (≈ 1.8 µM)	2 µg/mL (≈ 3.6 µM)	2 µg/mL (≈ 3.6 µM)	
CC[C@H]1O[C@@H](/C(C)=C/[C@H](C)/C=C/[C@H]2[C@@H](C)[C@@H]2/C=C/[C@@H]2O[C@H](CCO)C[C@H](NC)[C@H]2O)CC=C1C [I-ee, (5S,6R)-5-(methylamino)polyangi-1,6-diol]	3 µg/mL	9.5 µg/mL	2 µg/mL (≈ 4.22 µM)	2 µg/mL (≈ 4.22 µM)	2 µg/mL (≈ 4.22 µM)	
CC[C@H]1O[C@@H](/C(C)=C/[C@H](C)/C=C/[C@H]2[C@@H](C)[C@@H]2/C=C/[C@@H]2O[C@H](CC(=O)O)C[C@H](N(C)C(C)=O)[C@H]2O)CC=C1C [I-i, (5S,6R)-5-[N-methyl(acetamido)]-6-hydroxypolyangioic acid]	>32 µg/mL	32 µg/mL				MIC0 Tm [1]: >8 µg/mL; MIC0 Mg (Microsporum gypseum): >8 µg/mL; MIC0 Ti [2]: >8 µg/mL; MIC0 Ef (Epidermophyton floccosum): >8 µg/mL; MIC0 Tr (Trichophyton rubrum): >8 µg/mL; MIC0 Mc (Microsporum canis): >8 µg/mL
CC[C@H]1O[C@@H](/C(C)=C/[C@H](C)/C=C/[C@H]2[C@@H](C)[C@@H]2/C=C/[C@@H]2O[C@H](CC(=O)O)C[C@H](NC(C)C)[C@H]2O)CC=C1C [I-kk, (5S,6R)-5-(isopropylamino)-6-hydroxypolyangioic acid]	1.1 µg/mL	1 µg/mL	0.25 µg/mL (≈ 0.485 µM)	0.125 µg/mL (≈ 0.242 µM)	0.0625 µg/mL (≈ 0.121 µM)	MIC B. dermatitidis Gu (Blastomyces dermatitidis): 12.5 µg/mL (≈ 24.2 µM); MIC B. dermatitidis Kr (Blastomyces dermatitidis): >12.5 µg/mL; MIC B. dermatitidis V (Blastomyces dermatitidis): >12.5 µg/mL; MIC H. capsulatum G217B (Histoplasma capsulatum): <0.19 µg/mL; MIC H. capsulatum GS20 (Histoplasma capsulatum): <0.19 µg/mL
CC[C@H]1O[C@@H](/C(C)=C/[C@H](C)/C=C/[C@H]2[C@@H](C)[C@@H]2/C=C/[C@@H]2O[C@H](CC(=O)O)C[C@H](NCCO)[C@H]2O)CC=C1C [I-ll, (5S,6R)-5-[(2-hydroxyethyl)amino]-6-hydroxypolyangioic acid]	10 µg/mL	10 µg/mL	0.5 µg/mL (≈ 0.966 µM)	1 µg/mL (≈ 1.93 µM)	0.5 µg/mL (≈ 0.966 µM)	
CC[C@H]1O[C@@H](/C(C)=C/[C@H](C)/C=C/[C@H]2[C@@H](C)[C@@H]2/C=C/[C@@H]2O[C@H](CCO)C[C@H](N(C)CCO)[C@H]2O)CC=C1C [I-nn, (5S,6R)-5-[N-(2-hydroxyethyl)methylamino]polyangi-1,6-diol]	4 µg/mL	32 µg/mL				MIC B. dermatitidis Gu (Blastomyces dermatitidis): >12.5 µg/mL; MIC B. dermatitidis Kr (Blastomyces dermatitidis): >12.5 µg/mL; MIC B. dermatitidis V (Blastomyces dermatitidis): >12.5 µg/mL; MIC H. capsulatum G217B (Histoplasma capsulatum): <0.19 µg/mL; MIC H. capsulatum GS20 (Histoplasma capsulatum): <0.19 µg/mL
